Entries after “also recorded” stand apart in the source; their conditions may differ. Read-outs that look alike come from different tables or passages of the source.
What was measured:
human ABCB4 [1] = biological target: T1, human ABCB4 (Homo sapiens, UniProt P21439); experiment: Inhibition of ABCB4-mediated digoxin transport, bidirectional assay in Abcb1KO-MDCKII-ABCB4 cells; format: cell-based
T1 construct: expressed in transfected cells; host or cells: Abcb1KO-MDCKII (canine kidney, Abcb1 knockout), lentiviral transduction, single clone

[2] = ref FDA Liver Toxicity Knowledge Base (LTKB); cited from earlier work
ABCB4 [3] = conditions: read-out: In Vitro Literature Data (IC50), cited from earlier work
ABCB1 = ABCB1 (Homo sapiens, UniProt P08183); conditions: Y/N; cited from earlier work
canine Abcb1 [4] = biological target: T2, canine Abcb1 (Canis lupus familiaris, UniProt C0KKU9); experiment: in vitro; conditions: dog, MDCK, pH 7.4
human ABCB4 [5] = biological target: T1, human ABCB4; experiment: Bidirectional transport (efflux ratio) in Abcb1KO-MDCKII-ABCB4 cells, substrate test; format: in vitro ADME; conditions: for ABCB4 substrate status, in words: bidirectional transport, ER cut-off 2
ABCB4 [6] = conditions: cited from earlier work; for IC50: read-out: In Vitro Literature Data (IC50)
ABCB4 [7] = conditions: cited from earlier work; for In Vitro Literature Data, inhibitor (IC50 value was not determined): digoxin transport in ABCB4-transfected LLC-PK1 cells
canine Abcb1 [8] = biological target: T2, canine Abcb1; design: To confirm the impact of endogenous canine Abcb1 on the efflux ratio (ER); host or cells: MDCKII parental (wildtype) cells; method as in PMID 31266750; conditions: previous study; cited from earlier work
[9] = digoxin 1 µM probe, ABCB4 cell monolayers, samples at 3 h, read-out: IC50 (µM), Based on Digoxin ER
[10] = primary hepatocyte assay, labeled PC

T1 sequence (P21439 1-1279 isoform P21439-2): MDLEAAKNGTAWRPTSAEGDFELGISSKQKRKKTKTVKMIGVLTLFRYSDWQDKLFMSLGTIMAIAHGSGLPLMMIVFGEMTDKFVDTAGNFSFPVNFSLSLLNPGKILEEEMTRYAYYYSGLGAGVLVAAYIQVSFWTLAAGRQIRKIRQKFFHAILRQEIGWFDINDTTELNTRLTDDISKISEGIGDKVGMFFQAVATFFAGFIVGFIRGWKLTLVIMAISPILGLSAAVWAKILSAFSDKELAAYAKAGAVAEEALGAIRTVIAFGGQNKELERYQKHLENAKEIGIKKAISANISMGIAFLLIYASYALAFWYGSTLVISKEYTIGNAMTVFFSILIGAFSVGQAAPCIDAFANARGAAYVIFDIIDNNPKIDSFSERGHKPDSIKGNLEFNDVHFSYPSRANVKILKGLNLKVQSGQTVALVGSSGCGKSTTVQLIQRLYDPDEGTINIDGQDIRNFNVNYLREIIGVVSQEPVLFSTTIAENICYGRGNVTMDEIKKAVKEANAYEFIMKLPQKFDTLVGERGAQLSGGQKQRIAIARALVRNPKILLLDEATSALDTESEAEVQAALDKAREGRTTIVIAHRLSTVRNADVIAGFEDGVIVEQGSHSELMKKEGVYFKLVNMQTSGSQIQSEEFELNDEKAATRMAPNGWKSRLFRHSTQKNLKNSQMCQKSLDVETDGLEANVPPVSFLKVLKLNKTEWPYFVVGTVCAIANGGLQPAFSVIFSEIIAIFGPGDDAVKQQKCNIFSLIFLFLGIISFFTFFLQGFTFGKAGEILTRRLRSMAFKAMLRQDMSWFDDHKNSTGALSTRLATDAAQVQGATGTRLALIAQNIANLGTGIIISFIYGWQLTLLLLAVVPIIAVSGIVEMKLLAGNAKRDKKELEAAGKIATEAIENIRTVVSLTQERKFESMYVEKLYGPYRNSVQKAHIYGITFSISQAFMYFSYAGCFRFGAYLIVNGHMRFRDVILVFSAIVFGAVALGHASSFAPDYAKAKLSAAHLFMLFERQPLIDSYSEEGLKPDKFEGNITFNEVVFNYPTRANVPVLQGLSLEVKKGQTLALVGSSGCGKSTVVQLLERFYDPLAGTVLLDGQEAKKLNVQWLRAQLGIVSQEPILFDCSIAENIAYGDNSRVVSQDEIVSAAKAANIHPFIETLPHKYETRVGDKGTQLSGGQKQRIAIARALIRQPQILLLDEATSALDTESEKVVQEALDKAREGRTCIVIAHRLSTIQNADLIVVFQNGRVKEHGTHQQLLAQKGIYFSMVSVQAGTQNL
T2 sequence (C0KKU9 1-1281): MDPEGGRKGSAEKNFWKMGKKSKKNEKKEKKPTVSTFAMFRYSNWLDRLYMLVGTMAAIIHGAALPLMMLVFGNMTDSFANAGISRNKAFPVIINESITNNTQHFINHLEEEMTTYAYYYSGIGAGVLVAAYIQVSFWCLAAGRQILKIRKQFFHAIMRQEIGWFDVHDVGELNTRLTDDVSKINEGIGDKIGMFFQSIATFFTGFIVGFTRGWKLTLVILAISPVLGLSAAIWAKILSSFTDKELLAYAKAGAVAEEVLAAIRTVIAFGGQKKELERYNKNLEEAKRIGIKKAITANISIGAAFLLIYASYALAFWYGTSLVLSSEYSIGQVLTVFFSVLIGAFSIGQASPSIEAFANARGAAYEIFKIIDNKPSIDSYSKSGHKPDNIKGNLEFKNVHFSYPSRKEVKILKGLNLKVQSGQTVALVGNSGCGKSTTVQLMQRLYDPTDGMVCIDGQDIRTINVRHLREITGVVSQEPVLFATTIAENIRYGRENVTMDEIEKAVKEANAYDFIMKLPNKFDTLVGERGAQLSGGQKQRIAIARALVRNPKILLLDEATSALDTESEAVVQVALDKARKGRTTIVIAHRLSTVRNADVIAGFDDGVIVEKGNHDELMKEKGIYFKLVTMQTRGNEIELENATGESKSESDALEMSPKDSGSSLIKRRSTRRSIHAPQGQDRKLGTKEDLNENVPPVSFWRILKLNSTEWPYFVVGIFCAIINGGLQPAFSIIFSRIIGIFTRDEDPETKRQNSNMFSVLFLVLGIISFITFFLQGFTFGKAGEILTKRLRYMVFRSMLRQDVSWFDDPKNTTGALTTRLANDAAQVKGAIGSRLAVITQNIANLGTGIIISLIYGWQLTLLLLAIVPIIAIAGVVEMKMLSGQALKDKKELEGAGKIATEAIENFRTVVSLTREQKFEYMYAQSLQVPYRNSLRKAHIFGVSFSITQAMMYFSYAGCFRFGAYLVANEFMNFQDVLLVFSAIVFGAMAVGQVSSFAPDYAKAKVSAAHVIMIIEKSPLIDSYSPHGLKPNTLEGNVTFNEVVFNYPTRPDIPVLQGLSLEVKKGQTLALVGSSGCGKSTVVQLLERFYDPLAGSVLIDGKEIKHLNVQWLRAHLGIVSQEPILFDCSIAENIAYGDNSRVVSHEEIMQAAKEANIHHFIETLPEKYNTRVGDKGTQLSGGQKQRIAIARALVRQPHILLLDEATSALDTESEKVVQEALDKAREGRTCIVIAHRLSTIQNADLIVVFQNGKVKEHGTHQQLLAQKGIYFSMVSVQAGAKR
ABCB1, sequence (P08183 whole entry): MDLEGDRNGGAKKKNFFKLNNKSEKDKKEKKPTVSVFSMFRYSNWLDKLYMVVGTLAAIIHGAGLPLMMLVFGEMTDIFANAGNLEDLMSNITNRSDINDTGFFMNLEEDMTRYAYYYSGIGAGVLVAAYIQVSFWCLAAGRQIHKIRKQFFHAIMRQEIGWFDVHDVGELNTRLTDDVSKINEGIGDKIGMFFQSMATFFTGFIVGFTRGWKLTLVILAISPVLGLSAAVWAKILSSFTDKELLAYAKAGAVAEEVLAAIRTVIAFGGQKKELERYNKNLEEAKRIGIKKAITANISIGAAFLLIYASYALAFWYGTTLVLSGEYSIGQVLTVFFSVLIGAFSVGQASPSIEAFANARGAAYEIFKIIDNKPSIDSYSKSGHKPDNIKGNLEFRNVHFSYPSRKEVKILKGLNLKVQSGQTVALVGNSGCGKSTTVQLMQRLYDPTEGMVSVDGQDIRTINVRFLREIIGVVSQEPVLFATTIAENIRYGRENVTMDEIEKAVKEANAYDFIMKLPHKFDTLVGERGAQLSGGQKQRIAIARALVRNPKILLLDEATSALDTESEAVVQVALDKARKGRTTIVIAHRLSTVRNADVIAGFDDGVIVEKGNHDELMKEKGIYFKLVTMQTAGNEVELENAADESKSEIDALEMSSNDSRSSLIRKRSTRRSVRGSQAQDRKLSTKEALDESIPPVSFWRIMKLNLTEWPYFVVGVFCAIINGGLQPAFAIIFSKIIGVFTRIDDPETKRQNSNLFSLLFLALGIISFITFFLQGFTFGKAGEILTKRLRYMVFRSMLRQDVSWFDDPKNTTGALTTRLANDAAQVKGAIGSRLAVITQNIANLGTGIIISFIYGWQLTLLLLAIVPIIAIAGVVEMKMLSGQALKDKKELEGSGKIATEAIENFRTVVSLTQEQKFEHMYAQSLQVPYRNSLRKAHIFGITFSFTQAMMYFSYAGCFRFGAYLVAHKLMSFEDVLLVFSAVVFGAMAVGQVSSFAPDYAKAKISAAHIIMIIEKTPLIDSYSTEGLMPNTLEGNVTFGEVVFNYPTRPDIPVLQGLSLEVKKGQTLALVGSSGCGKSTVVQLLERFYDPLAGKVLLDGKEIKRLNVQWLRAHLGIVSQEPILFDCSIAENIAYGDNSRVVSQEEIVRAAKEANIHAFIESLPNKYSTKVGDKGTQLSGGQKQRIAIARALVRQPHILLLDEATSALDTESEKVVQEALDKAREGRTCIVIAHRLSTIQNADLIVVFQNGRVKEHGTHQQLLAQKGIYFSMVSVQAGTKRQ

| Molecule | Effect on ABCB4-mediated digoxin transport, in words (human ABCB4 [1]; digoxin 1 µM probe) | IC50 (human ABCB4 [1]; [9]) [µM] | DILI Concern [2] | further results |
| --- | --- | --- | --- | --- |
| CC(=O)Oc1ccccc1C(=O)O [acetylsalicylic acid] | no effect | > 100 | No DILI concern | IC50 (ABCB4 [3]; human primary hepatocyte assay): > 300 µM |
| CCCCc1oc2ccccc2c1C(=O)c1cc(I)c(OCCN(CC)CC)c(I)c1 [amiodarone] | – | > 10 | – | – |
| CCOC(=O)C1=C(COCCN)NC(C)=C(C(=O)OC)C1c1ccccc1Cl (stereo not drawn) [amlodipine] | weak interaction | 17.9 | – | – |
| C=C[C@@H]1C[C@]1(NC(=O)[C@@H]1C[C@@H](Oc2ncc(OC)c3ccc(Cl)cc23)CN1C(=O)[C@@H](NC(=O)OC(C)(C)C)C(C)(C)C)C(=O)NS(=O)(=O)C1CC1 [asunaprevir] | ABCB4 inhibitors | – | – | – |
| CCc1oc2ccccc2c1C(=O)c1cc(Br)c(O)c(Br)c1 [benzbromarone] | – | – | Most DILI concern | IC50 (human ABCB4 [1]): 19.9 µM; IC50 (ABCB4 [3]; human primary hepatocyte assay): 0.4 µM |
| NC(=O)N1c2ccccc2C=Cc2ccccc21 [carbamazepine] | – | > 80 | Most DILI concern | ABCB1 Interactor (ABCB1): Conflicting information [50]; IC50 (ABCB4 [3]; human primary hepatocyte assay): > 300 µM |
| COc1ccccc1OCCNCC(O)COc1cccc2[nH]c3ccccc3c12 (stereo not drawn) [carvedilol] | – | 0.7 | Less DILI concern | – |
| CC[C@H]1OC(=O)[C@H](C)[C@@H](O[C@H]2C[C@@](C)(OC)[C@@H](O)[C@H](C)O2)[C@H](C)[C@@H](O[C@@H]2O[C@H](C)C[C@H](N(C)C)[C@H]2O)[C@](C)(OC)C[C@@H](C)C(=O)[C@H](C)[C@@H](O)[C@]1(C)O [clarithromycin] | – | > 80 | Most DILI concern | – |
| CC(C)CN(C[C@@H](O)[C@H](Cc1ccccc1)NC(=O)O[C@H]1CO[C@H]2OCC[C@H]21)S(=O)(=O)c1ccc(N)cc1 [darunavir] | ABCB4 inhibitors | > 10 | – | inhibition at 10 µM (human ABCB4 [1]; read-out: % inhibition of ABCB4-mediated digoxin transport at 10 µM, 10 µM test drug, digoxin 1 µM): 60% |
| C[C@H]1O[C@@H](O[C@H]2[C@@H](O)C[C@H](O[C@H]3[C@@H](O)C[C@H](O[C@H]4CC[C@@]5(C)[C@H](CC[C@@H]6[C@@H]5C[C@@H](O)[C@]5(C)[C@@H](C7=CC(=O)OC7)CC[C@]65O)C4)O[C@@H]3C)O[C@@H]2C)C[C@H](O)[C@@H]1O [digoxin] | – | – | – | efflux ratio at 1 µM (canine Abcb1 [4]): 4.74 ± 0.15; ABCB4 substrate status, in words (human ABCB4 [5]): shared substrate for ABCB1 and ABCB4 |
| COc1ccc([C@@H]2Sc3ccccc3N(CCN(C)C)C(=O)[C@@H]2OC(C)=O)cc1 [diltiazem] | – | 48.6 | – | – |
| COc1cc2c(cc1OC)CN(CCc1ccc(NC(=O)c3cccc4c(=O)c5cccc(OC)c5[nH]c34)cc1)CC2 [elacridar] | strong concentration-dependent inhibitory effect | 0.15 | – | – |
| C#Cc1cccc(Nc2ncnc3cc(OCCOC)c(OCCOC)cc23)c1 [erlotinib] | – | > 5 | Most DILI concern | – |
| CCOC(=O)C1=C(C)NC(C)=C(C(=O)OC)C1c1cccc(Cl)c1Cl (stereo not drawn) [felodipine] | no interaction | > 30 | – | – |
| CC(C)OC(=O)C(C)(C)Oc1ccc(C(=O)c2ccc(Cl)cc2)cc1 [fenofibrate] | no interaction | > 20 | – | – |
| OC(Cn1cncn1)(Cn1cncn1)c1ccc(F)cc1F [fluconazole] | – | – | Most DILI concern | IC50 (human ABCB4 [1]): > 3 µM; IC50 (ABCB4 [3]; human primary hepatocyte assay): > 300 µM |
| CC[C@H](Nc1ncnc2[nH]cnc12)c1nc2cccc(F)c2c(=O)n1-c1ccccc1 [idelalisib] | did not inhibit ABCB4 | > 5 | – | – |

| Molecule | Effect on ABCB4-mediated digoxin transport, in words (human ABCB4 [1]; digoxin 1 µM probe) | IC50 (human ABCB4 [1]; [9]) [µM] | DILI Concern [2] | further results |
| --- | --- | --- | --- | --- |
| CCC(C)n1ncn(-c2ccc(N3CCN(c4ccc(OCC5COC(Cn6cncn6)(c6ccc(Cl)cc6Cl)O5)cc4)CC3)cc2)c1=O (stereo not drawn) [itraconazole] | – | 0.17 | Most DILI concern | In Vitro Literature Data, % inhibition at 1 µM (ABCB4 [6]; 1 µM): 50%; IC50 (ABCB4 [6]): 22.5 µM; In Vitro Literature Data, % inhibition at 10 µM (ABCB4 [7]; 10 µM, LLC-PK1-ABCB4 cells): 30%; Effect on ABCB4-mediated transport of gefitinib (human ABCB4 [5]; itraconazole 2 µM, gefitinib 0.5 µM): inhibited; IC50 (ABCB4 [3]; [10]): 2.1 µM |
| CC(=O)N1CCN(c2ccc(OCC3COC(Cn4ccnc4)(c4ccc(Cl)cc4Cl)O3)cc2)CC1 (stereo not drawn) [ketoconazole] | – | – | Most DILI concern | IC50 (human ABCB4 [1]): 0.56 µM; IC50 (ABCB4 [6]): 4.6 µM |
| Cc1cccc(C)c1OCC(=O)N[C@@H](Cc1ccccc1)[C@@H](O)C[C@H](Cc1ccccc1)NC(=O)[C@H](C(C)C)N1CCCNC1=O [lopinavir] | ABCB4 inhibitors | 0.6 | – | – |
| CN(Cc1cnc2nc(N)nc(N)c2n1)c1ccc(C(=O)N[C@@H](CCC(=O)O)C(=O)O)cc1 [methotrexate] | did not detect interaction; also recorded: did not show inhibition | > 10 | Most DILI concern | IC50 (ABCB4 [3]; human primary hepatocyte assay): 3.1 µM |
| COCC(=O)O[C@]1(CCN(C)CCCc2nc3ccccc3[nH]2)CCc2cc(F)ccc2[C@@H]1C(C)C [mibefradil] | strong concentration-dependent inhibitory effect | 0.4 | – | – |
| Nc1cc(N2CCCCC2)nc(N)[n+]1[O-] [minoxidil] | no effect | > 20 | – | IC50 (ABCB4 [3]; human primary hepatocyte assay): > 300 µM |
| COc1ccnc(C[S+]([O-])c2nc3ccc(OC(F)F)cc3[nH]2)c1OC (stereo not drawn) [pantoprazole] | no interaction | > 10 | Less DILI concern | – |
| COc1cc2nc(N3CCN(C(=O)c4ccco4)CC3)nc(N)c2cc1OC [prazosin] | – | 16.1 | – | ABCB4 substrate status, in words (human ABCB4 [5]): minor ABCB4-mediated directional transport |
| C=C[C@H]1C[N@@]2CC[C@H]1C[C@@H]2[C@@H](O)c1ccnc2ccc(OC)cc12 [quinidine] | – | 1.09 | – | efflux ratio at 1 µM (human ABCB4 [5]; human, pH 7.4, 1 µM, ABCB4 cells, read-out: Efflux ratio (ER)): < 2 |
| CC(C)c1nc(CN(C)C(=O)N[C@H](C(=O)N[C@@H](Cc2ccccc2)C[C@H](O)[C@H](Cc2ccccc2)NC(=O)OCc2cncs2)C(C)C)cs1 [ritonavir] | – | – | Most DILI concern | IC50 (ABCB4 [3]; human primary hepatocyte assay): […]; IC50 (ABCB4 [3]; [10]): […] |
| CC(C)(C)NC(=O)[C@@H]1C[C@@H]2CCCC[C@@H]2CN1C[C@@H](O)[C@H](Cc1ccccc1)NC(=O)[C@H](CC(N)=O)NC(=O)c1ccc2ccccc2n1 [saquinavir] | – | 1.4 | Less DILI concern | – |
| CNC(=O)c1cc(Oc2ccc(NC(=O)Nc3ccc(Cl)c(C(F)(F)F)c3)cc2)ccn1 [sorafenib] | – | 4.42 | Most DILI concern | – |
| C/C=C/C[C@@H](C)C(=O)[C@H]1C(=O)N[C@@H](C(C)C)C(=O)N(C)CC(=O)N(C)[C@@H](CC(C)C)C(=O)N[C@@H](C(C)C)C(=O)N(C)[C@@H](CC(C)C)C(=O)N[C@@H](C)C(=O)N[C@H](C)C(=O)N(C)[C@@H](CC(C)C)C(=O)N(C)[C@@H](CC(C)C)C(=O)N(C)[C@@H](C(C)C)C(=O)N1C [valspodar] | potent ABCB4 inhibitor | – | – | IC50 (human ABCB4 [1]): 0.15 µM; In Vitro Literature Data, inhibitor (IC50 value was not determined) (ABCB4 [7]): Inhibitor ^d [16] |
| COc1ccc(CCN(C)CCCC(C#N)(c2ccc(OC)c(OC)c2)C(C)C)cc1OC (stereo not drawn) [verapamil] | – | – | – | In Vitro Literature Data, inhibitor (IC50 value was not determined) (ABCB4 [7]): inhibitor |
| O[C@@H](COc1cccc2ncccc12)CN1CCN([C@@H]2c3ccccc3[C@@H]3[C@H](c4ccccc42)C3(F)F)CC1 [zosuquidar] | strong concentration-dependent inhibitory effect | 0.07 | – | – |
| ivermectin | ABCB4 inhibitor | 0.53 | Less DILI concern | In Vitro Literature Data, substrate (ABCB4 [7]; LLC-PK1-ABCB4 cells): Substrate [16] |
| maraviroc | – | – | – | Affinity for endogenous canine Abcb1 in MDCKII cell lines, in words (canine Abcb1 [8]): strong affinity |

From publication PMC10003010, “A Unique In Vitro Assay to Investigate ABCB4 Transport Function” (International Journal of Molecular Sciences, 2023)
